Results taken from publication PMC6521623, “DIRAS3-Derived Peptide Inhibits Autophagy in Ovarian Cancer Cells by Binding to Beclin1” (Cancers, 2019).
Ends that are not written are not given here.

Assays:
full-length Beclin1 = target: T1, full-length Beclin1 (Homo sapiens, UniProt Q14457); assay: SPR affinity of biotinylated D3S2 peptide for Beclin1; format: binding; settings: SPR Biacore 3000, 25 °C, c-terminal biotinylated D3S2 on SA chip, Beclin1 10 to 270 nM, Langmuir 1:1 fit, unit inferred
T1 construct: His tag (pQTEV vector, TEV site) (cleaved yes); made in house; host or cells: Escherichia coli BL21 (DE3), by analogy with the DIRAS2/3 chimera
Description: A DIRAS2/3 chimera construct was generated by replacing the amino acid residues 92–108 of DIRAS3 with 62–78 amino acid residues of DIRAS2. The DIRAS2/3 chimera construct was cloned into pQTEV vector using ligation-independent cloning and transformed into BL21 (DE3) Escherichia coli cells. Cells carrying the DIRAS2/3 chimera constructs were grown at 37 °C until the OD at 600 nm (OD600) reached to 0.6 and protein expression was induced with 0.5 mM isopropyl β-D-1-thiogalactopyranoside. Cultures were grown for an additional 12 h at 18 °C and harvested by centrifugation. Cells were resuspended in lysis buffer containing 50 mM Tris (pH 7.5), 150 mM sodium chloride, 10 mM magnesium chloride, 10 mM Imidazole, 5% glycerol and 1 mM β-mercaptoethanol and lysed using a cell disrupter (Constant Systems, Northamptonshire, UK). The lysate was cleared by centrifugation at 35,000 × g for 2 h at 4 °C. Cleared lysate was passed through a 0.22-μm filter. […]
SPR experiments were performed using a Biacore 3000 optical biosensor (GE Healthcare/Biacore AB) at 25 °C. […] Reference and buffer corrected SPR response was collected and the data was analyzed using Biacore evaluation software. The kinetic parameters and KD value were determined by fitting the sensorgram to a Langmuir 1:1 binding model (BIAevaluation version 4.1.1, GE Healthcare/Biacore AB, Marlborough, MA, USA).

[1] = target: T2, Beclin1 recombinant protein (UniProt Q14457 1-450); assay: peptide or protein array; 15mer peptide array of DIRAS3 residues 1-229 on membrane, overlaid with recombinant Beclin1 at 1 µg/mL in 1% BSA/PBS, 2 h at room temperature; detected with primary and secondary antibody, HRP; settings: both partners purified
T2 construct: Beclin1 (BECN1); called full-length Beclin1 in the SPR experiment; The construct is not described beyond 'produced in a similar fashion'; For the chimera the His tag was cleaved with TEV protease; whether this also holds for Beclin1 is surmised; also called BECN1; full-length Beclin1; source: recombinant
T2 sequence (Q14457 whole entry, the tested form may be a part): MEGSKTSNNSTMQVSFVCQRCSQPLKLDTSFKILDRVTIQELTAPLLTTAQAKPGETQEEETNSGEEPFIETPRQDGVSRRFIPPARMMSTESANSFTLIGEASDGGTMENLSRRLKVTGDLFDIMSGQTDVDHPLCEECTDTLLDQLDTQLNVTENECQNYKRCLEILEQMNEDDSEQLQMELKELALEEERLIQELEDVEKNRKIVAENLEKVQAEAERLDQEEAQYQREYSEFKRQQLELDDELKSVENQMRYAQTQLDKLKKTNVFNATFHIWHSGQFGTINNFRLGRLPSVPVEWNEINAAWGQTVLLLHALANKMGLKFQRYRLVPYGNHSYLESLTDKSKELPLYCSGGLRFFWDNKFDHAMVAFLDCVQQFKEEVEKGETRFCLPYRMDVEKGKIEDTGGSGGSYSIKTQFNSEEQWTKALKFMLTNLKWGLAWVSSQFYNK

T1 sequence (Q14457 whole entry): as the sequence (Q14457 whole entry, the tested form may be a part) above

| Molecule | kon (full-length Beclin1; read-out: association rate constant (ka)) | koff (full-length Beclin1; read-out: dissociation rate constant (kd)) | binding result [1] |
| --- | --- | --- | --- |
| SKSGDGNRALQRHVIAR [D3S2] | 62200 M⁻¹ s⁻¹ | 0.000125 s⁻¹ |  |
| KSGDGNRALQRHVIA (peptide, UniProt O95661 93-107, looked up, source: synthetic peptide, SPOT synthesis on membrane (MultiPep RS robot)) [DIRAS3 switch II region peptide on the DIRAS3 peptide array (residues 93-107)] |  |  | binds |
| KRLRLLPALLILRAFKPHR (peptide, UniProt O95661 15-33, looked up, DIRAS3, residues 15-33 (N-terminus), a stretch covered by overlapping 15mer peptides of an array covering residues 1-229; The stretch is longer than one 15mer, so several overlapping array spots are meant; also called N-terminus of DIRAS3 (residues 15-33); source: synthetic peptide, SPOT synthesis on membrane (MultiPep RS robot)) [DIRAS3 N-terminus peptides on the DIRAS3 peptide array (residues 15-33)] |  |  | binds |
